# In US8133847B2, “Pyrido[2,3-B]pyrazine derivatives useful as herbicidal compounds” (Syngenta Limited, priority 2006, dated 2012):
# How the values were obtained:
# Assay in all cases: Example B1 herbicidal action, post-emergence, 96-cell seed trays, climatic chamber
# Format in all cases: in vivo
# Solanum nigrum (SOLNI) = conditions: Application post-emergence, 1000 mg/l spray equivalent to 1000 g/ha, evaluated after 9 days (100=total damage to plant, 0=no damage to plant)
# Procedure, shortened: (§1)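 Plants at 8–9 days post-sowing (23/17 °C, 13 h light, 50–60% humidity) sprayed post-emergence with 1000 mg/l active ingredient in 10% DMSO, equivalent to 1000 g/ha. Grown on at 24/19 °C, watered twice daily; damage scored after 9 days (0 = none, 100 = total).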
# [1] = tested on: Amaranthus retroflexus (AMARE); conditions: Application post-emergence, 1000 mg/l spray equivalent to 1000 g/ha, evaluated after 9 days
# Procedure, shortened: as §1
# Stellaria media (STEME) = conditions: Application post-emergence, 1000 mg/l spray equivalent to 1000 g/ha, evaluated after 9 days (100=total damage to plant, 0=no damage to plant)
# Procedure, shortened: as §1
# [2] = tested on: Nasturtium officinale (NAAOF); parameters: scale not given here; conditions: Application post-emergence, 1000 mg/l spray equivalent to 1000 g/ha, evaluated after 9 days (100=total damage to plant, 0=no damage to plant)
# Procedure, shortened: as §1
Compound,"damage to plant, Solanum nigrum (SOLNI) (Solanum nigrum (SOLNI))","damage to plant, Amaranthus retroflexus (AMARE) [1]","damage to plant, Stellaria media (STEME) (Stellaria media (STEME))","damage to plant, Nasturtium officinale (NAAOF) [2]"
CC(C)(C)C(=O)Oc1c(-c2ccccc2OC(F)(F)F)c(=O)n(CC2CC2)c2nccnc12 [Compound C47],3,4,0,1
CC#CCOC(=O)Oc1c(-c2c(F)ccc(F)c2Cl)c(=O)n(C)c2nccnc12 [Compound C73],0,4,4,6
CCC(=O)Oc1c(-c2c(Cl)cccc2Cl)c(=O)n(CCOC)c2nccnc12 [Compound C34],0,2,6,5
CC(C)(C)C(=O)Oc1c(-c2ccccc2OC(F)(F)F)c(=O)[nH]c2nccnc12 [Compound B17],2,0,0,0
CC(=O)Oc1c(-c2ccccc2OC(F)(F)F)c(=O)[nH]c2nccnc12 [Compound B8],2,1,3,3
CCn1c(=O)c(-c2c(F)ccc(F)c2Cl)c(OC(C)=O)c2nccnc21 [Compound C13],2,8,8,8
COc1cccc(C(=O)Oc2c(-c3c(F)ccc(F)c3Cl)c(=O)n(C)c3nccnc23)c1 [Compound C85],4,5,4,3
CC(C)C(=O)Oc1c(-c2ccc(F)cc2Cl)c(=O)[nH]c2nccnc12 [Compound B2],0,5,0,0
CC(C)C(=O)Oc1c(-c2c(F)ccc(F)c2Cl)c(=O)n(C)c2ncc(Cl)nc12 [Compound C83],1,0,0,0
O=c1[nH]c2nccnc2c(O)c1-c1c(Cl)cccc1C(F)(F)F [Compound A31],0,5,3,3
CCCCC(CC)C(=O)Oc1c(-c2c(F)ccc(F)c2Cl)c(=O)n(C)c2nccnc12 (stereo not drawn) [Compound C92],7,5,6,2
CC(C)C(=O)Oc1c(-c2cc(C(F)(F)F)ccc2Cl)c(=O)[nH]c2nccnc12 [Compound B38],0,4,0,4
Cc1ccc(F)c(-c2c(O)c3nccnc3[nH]c2=O)c1Cl [Compound A35],4,4,0,3
CC(CC(=O)Oc1c(-c2c(F)ccc(F)c2Cl)c(=O)n(C)c2nccnc12)CC(C)(C)C (stereo not drawn) [Compound C98],2,5,1,2
CCn1c(=O)c(-c2ccc(F)cc2Cl)c(OC(=O)C(C)C)c2nccnc21 [Compound C3],5,0,6,7
CCn1c(=O)c(-c2ccccc2OC)c(OC(=O)C(C)C)c2nccnc21 [Compound C70],0,0,3,4
C=CCn1c(=O)c(-c2c(F)ccc(F)c2Cl)c(OC(C)=O)c2nccnc21 [Compound C14],4,7,8,8
CC(C)(C)C(=O)Oc1c(-c2c(F)ccc(F)c2Cl)c(=O)n(CC2CC2)c2nccnc12 [Compound C49],0,3,3,0

Compound,"damage to plant, Solanum nigrum (SOLNI) (Solanum nigrum (SOLNI))","damage to plant, Amaranthus retroflexus (AMARE) [1]","damage to plant, Stellaria media (STEME) (Stellaria media (STEME))","damage to plant, Nasturtium officinale (NAAOF) [2]"
CC(C)C(=O)Oc1c(-c2c(F)ccc(F)c2Cl)c(=O)n(C)c2nc(Cl)cnc12 [Compound C82],0,4,0,0
CC(C)C(=O)Oc1c(-c2cc(C(F)(F)F)ccc2Cl)c(=O)n(C)c2nccnc12 [Compound C118],6,6,8,7
O=c1[nH]c2nccnc2c(O)c1-c1cccc(Cl)c1Cl [Compound A4],2,5,1,2
Cn1c(=O)c(-c2c(F)ccc(F)c2Cl)c(OC(=O)CC(C)(C)C)c2nccnc21 [Compound C53],3,7,5,7
Cn1c(=O)c(-c2ccccc2C(F)(F)F)c(OC(=O)C(C)(C)C)c2nccnc21 [Compound C109],6,3,0,4
CCn1c(=O)c(-c2ccc(Cl)cc2Cl)c(OC(=O)C(C)C)c2nccnc21 [Compound C64],8,6,10,10
Cc1ccc(F)c(-c2c(OC(=O)C(C)(C)C)c3nccnc3n(C)c2=O)c1Cl [Compound C128],7,3,6,6
CCn1c(=O)c(-c2c(F)ccc(F)c2Cl)c(O)c2nccnc21 [Compound D2],8,6,8,8
"Cn1c(=O)c(-c2c(F)ccc(F)c2Cl)c(O)c2c1ncc[n+]2[O-] [Compound D6, 7-(2-chloro-3,6-difluorophenyl)-8-hydroxy-5-methyl-1-oxy-5H-pyrido[2,3-b]pyrazin-6-one]",3,5,6,7
CCn1c(=O)c(-c2ccc(Cl)cc2Cl)c(OC(=O)C(C)(C)C)c2nccnc21 [Compound C62],1,7,8,8
CCn1c(=O)c(-c2cc(C(F)(F)F)ccc2Cl)c(OC(=O)C(C)(C)C)c2nccnc21 [Compound C122],6,6,7,4
CCCCn1c(=O)c(-c2c(Cl)cccc2Cl)c(OC(C)=O)c2nccnc21 [Compound C40],2,3,2,2
CC(C)Cn1c(=O)c(-c2ccccc2OC(F)(F)F)c(OC(=O)C(C)(C)C)c2nccnc21 [Compound C46],4,0,1,1
CCn1c(=O)c(-c2c(C)cc(C)cc2C)c(OC(C)=O)c2nccnc21 [Compound C81],4,5,8,8
Cc1ccc(Cl)c(-c2c(O)c3nccnc3[nH]c2=O)c1F [Compound A33],3,4,3,2
CC(=O)Oc1c(-c2c(Cl)cc(C(F)(F)F)cc2Cl)c(=O)[nH]c2nccnc12 [Compound B15],0,0,2,7
Cc1ccc(Cl)c(-c2c(OC(=O)C(C)(C)C)c3nccnc3[nH]c2=O)c1F [Compound B37],0,0,5,0
O=c1[nH]c2ncc(Br)nc2c(O)c1-c1c(Cl)cccc1Cl [Compound A26],0,0,2,0
